Data: publication PMC5397323 (Biopharmaceutics & drug disposition, 2017)

Columns and labels:
OATP2B1 [1] = biological target: T1, OATP2B1 (Homo sapiens, UniProt O94956); test: Inhibition of OATP2B1-mediated estrone 3-sulfate uptake in MDCKII-OATP2B1 cells; type: cell-based; details: 0 to 316 μM
T1 sequence (O94956 1-709): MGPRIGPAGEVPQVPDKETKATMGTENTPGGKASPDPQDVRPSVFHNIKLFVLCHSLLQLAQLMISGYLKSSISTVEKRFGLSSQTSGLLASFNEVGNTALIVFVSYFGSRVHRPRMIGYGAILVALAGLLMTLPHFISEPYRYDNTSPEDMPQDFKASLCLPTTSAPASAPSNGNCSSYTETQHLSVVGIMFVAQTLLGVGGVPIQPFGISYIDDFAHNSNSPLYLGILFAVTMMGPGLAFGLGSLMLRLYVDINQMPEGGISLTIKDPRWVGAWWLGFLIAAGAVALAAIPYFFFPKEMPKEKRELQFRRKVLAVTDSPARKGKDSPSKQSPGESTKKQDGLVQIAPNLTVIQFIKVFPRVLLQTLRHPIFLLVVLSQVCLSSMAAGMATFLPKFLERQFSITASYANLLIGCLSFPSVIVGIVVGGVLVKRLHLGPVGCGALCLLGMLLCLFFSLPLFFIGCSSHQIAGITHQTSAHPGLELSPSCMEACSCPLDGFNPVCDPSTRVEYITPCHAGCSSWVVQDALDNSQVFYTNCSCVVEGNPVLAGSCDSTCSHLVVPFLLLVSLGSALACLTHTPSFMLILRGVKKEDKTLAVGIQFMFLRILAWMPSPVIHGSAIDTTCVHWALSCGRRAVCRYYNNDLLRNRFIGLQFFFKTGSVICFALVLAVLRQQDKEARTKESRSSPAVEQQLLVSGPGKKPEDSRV

OATP2B1 [2] = biological target: T1, OATP2B1; details: OATP2B1-overexpressing Xenopus laevis oocytes; cited from earlier work

With `COc1ccc([C@@H]2CC(=O)c3c(O)cc(O[C@@H]4O[C@H](CO[C@@H]5O[C@@H](C)[C@H](O)[C@@H](O)[C@H]5O)[C@@H](O)[C@H](O)[C@H]4O)cc3O2)cc1O` [Hesperidin, hesperidin] as the molecule, how does the “inhibition at the concentrations tested” value (OATP2B1 [1]) read?
The value was “no inhibition”.

And the IC50 (OATP2B1 [2])?
The IC50 was 1920 nM.
